Like-named read-outs stand apart in the source and are kept apart here.

The test system of assay [1] is Mycosphaerella graminicola; Anamorph: Septoria tritici. Put plainly: Leaf Blotch of Wheat (SEPTTR) fungicidal activity on wheat seedlings. It counts as in vivo. The conditions noted are these: Zymoseptoria tritici; for pest or weed control at 121.5 g/ha: Low Volume, 121.5 g/H; for pest or weed control at 100 ppm: High Volume. Here is the method:
Example A: Evaluation of Fungicidal Activity: Leaf Blotch of Wheat (Mycosphaerella graminicola; Anamorph: Septoria tritici; Bayer code […]): Technical grades of materials were dissolved in acetone, which were then mixed with nine volumes of water (H2O) containing 110 ppm Triton X-100. The fungicide solutions were applied onto wheat seedlings using an automated booth sprayer to run-off. All sprayed plants were allowed to air dry prior to further handling. All fungicides were evaluated using the aforementioned method for their activity vs. all target diseases, unless stated otherwise. Wheat leaf blotch and brown rust activity were also evaluated using track spray applications, in which case the fungicides were formulated as EC formulations, containing 0.1% Trycol 5941 in the spray solutions. Wheat plants (variety Yuma) were grown from seed in a greenhouse in 50% mineral soil/50% soil-less Metro mix until the first leaf was fully emerged, with 7-10 seedlings per pot. These plants were inoculated with an aqueous spore suspension of Septoria tritici either prior to or after fungicide treatments. After inoculation the plants were kept in 100% relative humidity (one day in a dark dew chamber followed by two to three days in a lighted dew chamber at 20° C.) to permit spores to germinate and infect the leaf. The plants were then transferred to a greenhouse set at 20° C. for disease to develop. When disease symptoms were fully expressed on the 1st leaves of untreated plants, infection levels were assessed on a scale of 0 to 100 percent disease severity. Percent disease control was calculated using the ratio of disease severity on treated plants relative to untreated plants.

In assay [2] the test system is Puccinia triticina; Synonym: Puccinia recondita f sp. tritici. Put plainly: Wheat Brown Rust (PUCCRT) fungicidal activity on wheat seedlings. In kind it is in vivo. The conditions noted are these: for pest or weed control at 121.5 g/ha: Low Volume, 121.5 g/H; for pest or weed control at 100 ppm: High Volume. Here is the method:
Technical grades of materials were dissolved in acetone, which were then mixed with nine volumes of water (H2O) containing 110 ppm Triton X-100. The fungicide solutions were applied onto wheat seedlings using an automated booth sprayer to run-off. All sprayed plants were allowed to air dry prior to further handling. All fungicides were evaluated using the aforementioned method for their activity vs. all target diseases, unless stated otherwise. Wheat leaf blotch and brown rust activity were also evaluated using track spray applications, in which case the fungicides were formulated as EC formulations, containing 0.1% Trycol 5941 in the spray solutions. Wheat plants (variety Yuma) were grown from seed in a greenhouse in 50% mineral soil/50% soil-less Metro mix until the first leaf was fully emerged, with 7-10 seedlings per pot. These plants were inoculated with an aqueous spore suspension of Septoria tritici either prior to or after fungicide treatments. After inoculation the plants were kept in 100% relative humidity (one day in a dark dew chamber followed by two to three days in a lighted dew chamber at 20° C.) to permit spores to germinate and infect the leaf. The plants were then transferred to a greenhouse set at 20° C. for disease to develop. When disease symptoms were fully expressed on the 1st leaves of untreated plants, infection levels were assessed on a scale of 0 to 100 percent disease severity. Percent disease control was calculated using the ratio of disease severity on treated plants relative to untreated plants. Example B: Evaluation of Fungicidal Activity: Wheat Brown Rust (Puccinia triticina; Synonym: Puccinia recondita f sp. tritici; Bayer code PUCCRT): Wheat plants (variety Yuma) were grown from seed in a greenhouse in 50% mineral soil/50% soil-less Metro mix until the first leaf was fully emerged, with 7-10 seedlings per pot. These plants were inoculated with an aqueous spore suspension of Puccinia triticina either prior to or after fungicide treatments. After inoculation the plants were kept in a dark dew room at 22° C. with 100% relative humidity overnight to permit spores to germinate and infect the leaf. The plants were then transferred to a greenhouse set at 24° C. for disease to develop. Fungicide formulation, application and disease assessment followed the procedures as described in the Example A.

The mark [3] stands for this setting: 24 h, 1 Day Protectant, read-out: SEPTTR 1DP disease control.
[4] abbreviates: 72 h, 3 Day Curative, read-out: SEPTTR 3DC disease control.
[5] abbreviates: 24 h, 1 Day Protectant, read-out: PUCCRT 1DP disease control.
[6] abbreviates: 72 h, 3 Day Curative, read-out: PUCCRT 3DC disease control.

Take `COc1ccc(C(c2ccc(OC)cc2)[C@H](C)OC(=O)[C@H](C)NC(=O)c2nccc(OC)c2OCOC(C)=O)cc1` [Cmpd 158]: the pest or weed control at 121.5 g/ha in assay [1] (setting [3]), in assay [1] (setting [4]), in assay [2] (setting [5]) and in assay [2] (setting [6]) was greater than 80% in each case.

For `COc1ccnc(C(=O)N[C@@H](C)C(=O)O[C@@H](C)C(c2cccc(F)c2)c2cccc(F)c2)c1OC(C)=O` [Cmpd 156], the pest or weed control at 121.5 g/ha in assay [1] (setting [3]), in assay [1] (setting [4]), in assay [2] (setting [5]) and in assay [2] (setting [6]) was greater than 80% throughout.

For `COc1ccnc(C(=O)N[C@@H](C)C(=O)O[C@@H](C)C(c2ccc(Cl)c(C)c2)c2ccc(Cl)c(C)c2)c1OCOC(C)=O` [Cmpd 203], the pest or weed control at 121.5 g/ha was greater than 80% in assay [1] (setting [3]), greater than 80% in assay [1] (setting [4]), greater than 80% in assay [2] (setting [5]) and less than 80% in assay [2] (setting [6]).

Take `COc1ccnc(C(=O)N[C@@H](C)C(=O)O[C@@H](C)C(F)(c2ccccc2)c2ccccc2)c1OC(C)=O` [Cmpd 152]: the pest or weed control at 121.5 g/ha was greater than 80% in assay [1] (setting [3]), greater than 80% in assay [1] (setting [4]), less than 80% in assay [2] (setting [5]) and less than 80% in assay [2] (setting [6]).

Take `CCc1ccc(C(c2ccc(CC)cc2)[C@H](C)OC(=O)[C@H](C)NC(=O)c2nccc(OC)c2O)cc1` [Cmpd 124]: the pest or weed control at 100 ppm in assay [1] (setting [3]), in assay [1] (setting [4]), in assay [2] (setting [5]) and in assay [2] (setting [6]) was greater than 80% throughout.

As for `COc1ccnc(C(=O)N[C@@H](C)C(=O)O[C@@H](C)C(O)(c2ccc(Cl)c(F)c2)c2ccc(Cl)c(F)c2)c1O` [Cmpd 128], the pest or weed control at 100 ppm was greater than 80% in assay [1] (setting [3]), less than 80% in assay [1] (setting [4]) and less than 80% in assay [2] (setting [5]).

Turning to `COc1ccnc(C(=O)N[C@@H](C)C(=O)O[C@@H](C)C(c2ccc(Br)cc2)c2ccc(Br)cc2)c1O` [Cmpd 103], the pest or weed control at 100 ppm is greater than 80% in assay [1] (setting [3]), greater than 80% in assay [1] (setting [4]), greater than 80% in assay [2] (setting [5]) and less than 80% in assay [2] (setting [6]).

As for `COc1ccnc(C(=O)N[C@@H](C)C(=O)O[C@@H](C)[C@@H](c2ccccc2)c2ccc(C(F)(F)F)cc2)c1OCOC(C)=O` [Cmpd 175], the pest or weed control at 121.5 g/ha in assay [1] (setting [3]), in assay [1] (setting [4]), in assay [2] (setting [5]) and in assay [2] (setting [6]) was greater than 80% in each case.

Consider `COc1ccnc(C(=O)N[C@@H](C)C(=O)O[C@@H](C)C(O)(c2ccccc2)c2ccccc2)c1OCOC(C)=O` [Cmpd 138], for which the figures for the pest or weed control at 121.5 g/ha in assay [1] (setting [3]), in assay [1] (setting [4]) and in assay [2] (setting [6]) were greater than 80%, less than 80% and less than 80%, respectively.

Take `COc1ccnc(C(=O)N[C@@H](CC(C)C)C(=O)O[C@@H](C)C(c2ccc(F)cc2)c2ccc(F)cc2)c1OCOC(C)=O` [Cmpd 186]: the pest or weed control at 121.5 g/ha was greater than 80% in assay [1] (setting [3]), less than 80% in assay [1] (setting [4]) and less than 80% in assay [2] (setting [5]).

As for `CCOc1ccnc(C(=O)N[C@@H](C)C(=O)O[C@@H](C)C(c2ccc(F)cc2)c2ccc(F)cc2)c1O` [Cmpd 111], the pest or weed control at 100 ppm in assay [1] (setting [3]) was less than 80%; in assay [1] (setting [4]) it was greater than 80%; in assay [2] (setting [5]) it was less than 80%.

Turning to `CCOc1ccnc(C(=O)N[C@@H](C)C(=O)O[C@@H](C)C(c2ccc(F)cc2)c2ccc(F)cc2)c1OCOC(C)=O` [Cmpd 179], the pest or weed control at 121.5 g/ha in assay [1] (setting [3]) was greater than 80%; in assay [1] (setting [4]) it was greater than 80%; in assay [2] (setting [5]) it was less than 80%.

With `CC(=O)OCOc1cccnc1C(=O)N[C@@H](C)C(=O)O[C@@H](C)C(c1ccc(F)cc1)c1ccc(F)cc1` [Cmpd 178], the pest or weed control at 121.5 g/ha in assay [1] (setting [3]) was greater than 80%; in assay [1] (setting [4]) it was greater than 80%; in assay [2] (setting [5]), less than 80%.

`COc1ccnc(C(=O)N[C@@H](C)C(=O)O[C@@H](C)C(c2cccc(Cl)c2)c2cccc(Cl)c2)c1O` [Cmpd 100]: the pest or weed control at 100 ppm in assay [1] (setting [3]), in assay [1] (setting [4]), in assay [2] (setting [5]) and in assay [2] (setting [6]) was greater than 80% in each case.

Regarding `COc1ccnc(C(=O)N[C@@H](C)C(=O)O[C@@H](C)C(c2cccc(Cl)c2)c2cccc(Cl)c2)c1OCOC(C)=O` [Cmpd 160], the pest or weed control at 121.5 g/ha in assay [1] (setting [3]) was greater than 80%; in assay [1] (setting [4]) it was greater than 80%; in assay [2] (setting [5]), greater than 80%; in assay [2] (setting [6]), less than 80%.

For `CC[C@H](NC(=O)c1nccc(OC)c1O)C(=O)O[C@@H](C)C(c1ccc(F)cc1)c1ccc(F)cc1` [Cmpd 114], the pest or weed control at 100 ppm in assay [1] (setting [3]), in assay [1] (setting [4]), in assay [2] (setting [5]) and in assay [2] (setting [6]) was greater than 80% in each case.

In the case of `COc1ccnc(C(=O)N[C@@H](C)C(=O)O[C@@H](C)C(c2ccc(F)cc2)c2ccc(F)cc2)c1OC(=O)C1CC1` [Cmpd 210], the pest or weed control at 121.5 g/ha in assay [1] (setting [3]) was greater than 80%; in assay [1] (setting [4]), greater than 80%; in assay [2] (setting [5]), greater than 80%; in assay [2] (setting [6]) it was less than 80%.

As for `C[C@H](NC(=O)c1ncccc1O)C(=O)O[C@@H](C)C(c1ccc(F)cc1)c1ccc(F)cc1` [Cmpd 110], the pest or weed control at 100 ppm in assay [1] (setting [3]), in assay [1] (setting [4]) and in assay [2] (setting [5]) was greater than 80% each time.

For `COc1ccnc(C(=O)N[C@@H](CC(C)C)C(=O)O[C@@H](C)C(c2ccc(F)cc2)c2ccc(F)cc2)c1O` [Cmpd 116], the pest or weed control at 100 ppm in assay [1] (setting [3]), in assay [1] (setting [4]) and in assay [2] (setting [5]) was less than 80% in each case.

Consider `COc1ccnc(C(=O)NCC(=O)O[C@@H](C)C(c2ccc(F)cc2)c2ccc(F)cc2)c1OCOC(C)=O` [Cmpd 183], for which the pest or weed control at 121.5 g/ha was greater than 80% in assay [1] (setting [3]), less than 80% in assay [1] (setting [4]), greater than 80% in assay [2] (setting [5]) and greater than 80% in assay [2] (setting [6]).

On to `C#Cc1ccc(C(c2ccc(C#C)cc2)[C@H](C)OC(=O)[C@H](C)NC(=O)c2nccc(OC)c2OCOC(C)=O)cc1` [Cmpd 197], for which the pest or weed control at 121.5 g/ha in assay [1] (setting [3]), in assay [1] (setting [4]), in assay [2] (setting [5]) and in assay [2] (setting [6]) was greater than 80% throughout.

With `C#Cc1ccc(C(c2ccc(C#C)cc2)[C@H](C)OC(=O)[C@H](C)NC(=O)c2nccc(OC)c2O)cc1` [Cmpd 123], the pest or weed control at 100 ppm was less than 80% in assay [1] (setting [3]), greater than 80% in assay [1] (setting [4]) and less than 80% in assay [2] (setting [5]).

As to `COc1ccnc(C(=O)N[C@@H](C)C(=O)O[C@@H](C)C(c2ccc(C)c(Cl)c2)c2ccc(C)c(Cl)c2)c1OCOC(C)=O` [Cmpd 195], the pest or weed control at 121.5 g/ha is greater than 80% in assay [1] (setting [3]), less than 80% in assay [1] (setting [4]), greater than 80% in assay [2] (setting [5]) and less than 80% in assay [2] (setting [6]).

Values taken from patent US20240423207A1, “PICOLINAMIDE COMPOUNDS WITH FUNGICIDAL ACTIVITY” (CORTEVA AGRISCIENCE LLC, priority 2014, published 2024).
